Experimental data: patent US11554126B2, “Methods of treating residual lesions of vascular anomalies” (Georgetown University, priority 2017, dated 2023)

Tested on: fibrofatty residua (FFR) from an involuted infantile hemangioma
Assay type: in vivo, human
From the text: A child was referred for treatment of an involuted IH. They were concerned about the visual appearance and the feeling of fullness caused by the significant convexity of the tumor. […] Initial measurement was 0.8 cm high and 7.5 cm wide. Management options including surgical excision and laser treatments were discussed. The patient's parent was apprehensive regarding surgery due to the inherent risks of scarring, nerve damage, infection, bleeding, and tissue necrosis.
As an alternative to these options, the present inventors considered administering DCA to the patient to reduce the protuberance of the mass. The associated risks of DCA administration, as well as off-label use, and lack of pediatric approval were discussed with the patient. Two series of injections were planned.
The site was anesthetized with a topical 40% lidocaine ointment. Following prepping with alcohol, an injection grid modified to overlay the affected tissue was applied. Subsequently, 0.2 mL of DCA concentrated to 2 mg/cm^2 was injected at 1 cm intervals using a total of 4.4 mL, followed by the application of ice packs.
As planned, injections were repeated 3 months later, using an additional 4.2 mL. […] The FFR measured 0.2 cm high and 6.4 cm wide (FIG. 2A-2B). […] Some of the superifical vessels appeared to resolve completely (clinically go away/not visible after treatment) post treatment.

duration of moderate post-injection pain, erythema, bruising, and swelling (female, human, in vivo): 24 to 48 h
skin tension (in vivo): either maintained or enhanced
Structure (SMILES): C[C@H](CCC(=O)O)[C@H]1CC[C@H]2[C@@H]3CC[C@@H]4C[C@H](O)CC[C@]4(C)[C@H]3C[C@H](O)[C@]12C [DCA, 3α,12α-dihydroxy-5β-cholan-24-oic acid]
improvement in visual appearance and degree of protrusion (after two series of intralesional DCA, two months after second injection): significant improvement
improvement after the first treatment (first series, 0.2 mL injections at 1 cm intervals, total 4.4 mL): marginal improvement
tolerability of the procedure (in vivo): tolerated the procedure well
visible superficial vessels and telangiectasias in the FFR (post treatment, some of the vessels, some appeared to resolve completely): decreased in size, caliber, and/or lightened in color
FFR height, final measurement post-treatment (right flank, after two series of intralesional DCA (4.4 mL, then 4.2 mL 3 months later), two months after second injection, baseline 0.8 cm): 0.2 cm
FFR width, final measurement post-treatment (right flank, after two series of intralesional DCA (4.4 mL, then 4.2 mL 3 months later), two months after second injection, baseline 7.5 cm): 6.4 cm
